Columns and labels:
[1] = test system: Tetranychus urticae; test: acaricidal effect for Tetranychus urticae (spray on string bean); assay type: in vivo; conditions: 500 ppm, female imagoes, survivors counted on second and seventh day after treatment, 25° C.
Description: 2) acaricidal effect for Tetranychus urticae Ten female imagoes Tetranychus urticae were set free on a string bean wherein first leaves had just developed. On the following day, the pesticidal solution, which was prepared by dissolving 5 mg of test compound (represented by the compound Nos. in the above Examples) in 0.5 ml of acetone containing Tween 20 (trade name) and then diluting it to the prescribed concentration (500 ppm) with Dain water diluted 5000-fold, was sprayed with spray gun in the amounts wherein the pesticidal solution dripped. The string bean was left in a temperature-controlled breeding room (25° C.). On the second and seventh day after treatment, the number of surviving Tetranychus urticae was examined. The rate of decrease was calculated by the following formula, and the result was shown in table 40. rate of decrease (%)=(1−(S2/(5.59×(10+(10+S1)/2+S1))))×100 • S1; the number of surviving imagoes on the second day after S2; the number of surviving imagoes on the seventh day after […]

[2] = test system: Plutella xylostella; test: insecticidal effect for Plutella xylostella (cabbage leaf dip); assay type: in vivo; conditions: 100 ppm, second-instar larvae, fifth day after, 24° C.
Description: 1) insecticidal effect for Plutella xylostella One 7 to 8-leave stage foliage leaf of cabbage was cut off and dipped in a pesticidal solution for a few seconds, which was prepared by dissolving 5 mg of test compound (represented by the compound Nos. in the above Examples) in 0.5 ml of acetone containing Tween 20 (trade name) and then diluting it to the prescribed concentration (100 ppm) with Dain water diluted 5000-fold. After drying the pesticidal solution, the leaf was put into an ice cream cup (180 ml), and ten second-instar larvae of Plutella xylostella were set free. The cup was left in a temperature-controlled breeding room (24° C.). On the fifth day after, the number of surviving Plutella xylostella was examined. The rate of dead pests was calculated by the following formula, and the result was shown in table 39. rate of dead pests (%)=(number of dead pests/number of test pests)×100

Row | melting point | Compound | Rate of decrease (%) [1] | Rate of dead pests (%) [2]
1 | – | Cc1nc(-c2c(F)cccc2Cl)nn1-c1ccc(COc2ncc(Cl)cc2Cl)cc1 [T-20] | 98% | 100%
2 | – | Cc1nc(-c2c(F)cccc2Cl)nn1-c1ccc(COc2ccc(C(F)(F)F)cc2Cl)cc1 [T-12] | 98% | 100%
3 | – | Cc1cccc(C)c1-c1nc(C)n(-c2ccc(COc3ncc(C(F)(F)F)cc3Cl)cc2)n1 [T-74] | 97% | 100%
4 | – | N#Cc1nc(-c2c(F)cccc2Cl)nn1-c1ccc(COc2ncc(C(F)(F)F)cc2Cl)cc1 [T-52] | 97% | 100%
5 | – | Cc1nc(-c2c(F)cccc2Cl)nn1-c1ccc(COc2ccc(Cl)cc2)cc1 [T-3] | 98% | 100%
6 | – | COc1nc(-c2c(F)cccc2Cl)nn1-c1ccc(COc2ncc(C(F)(F)F)cc2Cl)cc1 [T-46] | 99% | 100%
7 | – | Cc1nc(-c2c(F)cccc2Cl)nn1-c1ccc(COc2ccc(C(F)(F)F)cc2)cc1 [T-5] | 96% | 95%
8 | – | Fc1cccc(F)c1-c1ncn(-c2ccc(COc3ncc(C(F)(F)F)cc3Cl)cc2)n1 [T-76] | 96% | –
9 | – | Cc1nc(-c2cccnc2Cl)nn1-c1ccc(COc2ncc(C(F)(F)F)cc2Cl)cc1 [T-130] | 98% | –
10 | – | O=Cc1nc(-c2ccccc2F)cn1-c1ccc(COc2ncc(C(F)(F)F)cc2Cl)cc1 [I-82] | 99% | –
11 | – | C=Cc1nc(-c2c(F)cccc2Cl)nn1-c1ccc(COc2ncc(C(F)(F)F)cc2Cl)cc1 [T-106] | 97% | 100%
12 | – | Fc1cccc(Cl)c1-c1nc(C2CC2)n(-c2ccc(COc3ncc(C(F)(F)F)cc3Cl)cc2)n1 [T-93] | 97% | –
13 | – | CCc1nc(-c2c(F)cccc2F)nn1-c1ccc(COc2ncc(C(F)(F)F)cc2Cl)cc1 [T-88] | 98% | 95%
14 | – | Cc1nc(-c2c(F)cccc2Cl)nn1-c1ccc(COc2ccc(Cl)cc2Cl)cc1 [T-9] | 99% | 100%
15 | – | CCc1nc(-c2c(F)cccc2Cl)nn1-c1ccc(COc2ncc(C(F)(F)F)cc2Cl)cc1 [T-48] | 99% | 100%
16 | – | Cc1nc(-c2c(F)cccc2Cl)nn1-c1ccc(Oc2ncc(C(F)(F)F)cc2Cl)cc1 [T-264] | 98% | –
17 | – | CC(C)c1nc(-c2c(F)cccc2Cl)nn1-c1ccc(COc2ncc(C(F)(F)F)cc2Cl)cc1 [T-92] | 98% | –
18 | – | COCc1nc(-c2c(F)cccc2Cl)nn1-c1ccc(COc2ncc(C(F)(F)F)cc2Cl)cc1 [T-56] | 98% | 100%
19 | – | Cc1nc(-c2c(F)cccc2Cl)nn1-c1ccc(COc2ccc(Cl)cn2)cc1 [T-18] | 97% | 100%
20 | 109 °C | Cc1nc(-c2ccccc2F)cn1-c1ccc(COc2ncc(C(F)(F)F)cc2Cl)cc1 [I-63, 1-[4-[3-chloro-5-(trifluoromethyl)pyridin-2-yloxymethyl]phenyl]-4-(2-fluorophenyl)-2-methylimidazole] | – | –
21 | – | Cc1nc(-c2c(F)cccc2Cl)nn1-c1ccc(COc2nnc(C(F)(F)F)s2)cc1 [T-25] | 99% | –
22 | – | COc1cccc(OC)c1-c1nc(C)n(-c2ccc(COc3ncc(C(F)(F)F)cc3Cl)cc2)n1 [T-140] | 99% | –
23 | – | Cc1nc(-c2c(F)ccc(F)c2Cl)nn1-c1ccc(COc2ncc(C(F)(F)F)cc2Cl)cc1 [T-138] | 99% | –
24 | – | Cc1nc(-c2c(F)cccc2Cl)nn1-c1ccc(COc2ncc(Cl)cn2)cc1 [T-24] | 97% | –
25 | – | Fc1cccc(Cl)c1-c1nc(C(F)(F)F)n(-c2ccc(COc3ncc(C(F)(F)F)cc3Cl)cc2)n1 [T-47] | 100% | 100%
26 | – | Cc1nc(-c2c(F)cccc2Cl)nn1Cc1ccc(COc2ncc(C(F)(F)F)cc2Cl)cc1 [T-172] | 98% | –

Row | melting point | Compound | Rate of decrease (%) [1] | Rate of dead pests (%) [2]
27 | – | Fc1cccc(Cl)c1-c1nc(C(F)F)n(-c2ccc(COc3ncc(C(F)(F)F)cc3Cl)cc2)n1 [T-120] | 99% | 100%
28 | – | Cc1nc(-c2c(Cl)cc(Cl)cc2Cl)nn1-c1ccc(COc2ncc(C(F)(F)F)cc2Cl)cc1 [T-131] | 100% | –
29 | – | Cc1nc(-c2c(F)ccc(Cl)c2F)nn1-c1ccc(COc2ncc(C(F)(F)F)cc2Cl)cc1 [T-137] | 99% | –
30 | – | C#Cc1nc(-c2c(F)cccc2Cl)nn1-c1ccc(COc2ncc(C(F)(F)F)cc2Cl)cc1 [T-132] | 100% | –
31 | – | Cc1nc(-c2c(F)cccc2Cl)nn1-c1ccc(C(C)Oc2ncc(C(F)(F)F)cc2Cl)cc1 (racemic) [T-267] | 99% | 100%
32 | – | Cc1nc(-c2c(F)cccc2Cl)nn1-c1ccc(COc2ccc(C(F)(F)F)cn2)cc1 [T-17] | – | 100%
33 | – | Fc1cccc(Cl)c1-c1cc(Cl)n(-c2ccc(COc3ncc(C(F)(F)F)cc3Cl)cc2)n1 [P-21, 5-chloro-3-(2-chloro-6-fluorophenyl)-1-[4-(3-chloro-5-trifluoromethylpyridin-2-yloxymethyl)phenyl]pyrazole] | 99% | 100%
34 | – | COC(=O)c1nc(-c2c(F)cccc2Cl)nn1-c1ccc(COc2ncc(C(F)(F)F)cc2Cl)cc1 [T-143] | 98% | –
35 | – | FCc1nc(-c2c(F)cccc2Cl)nn1-c1ccc(COc2ncc(C(F)(F)F)cc2Cl)cc1 [T-54] | 98% | –
36 | – | Cc1nc(-c2c(F)c(F)cc(F)c2F)nn1-c1ccc(COc2ncc(C(F)(F)F)cc2Cl)cc1 [T-134] | 100% | –
37 | – | Cc1nc(-c2c(F)cccc2C(F)(F)F)nn1-c1ccc(COc2ncc(C(F)(F)F)cc2Cl)cc1 [T-133] | 99% | 95%
38 | – | Cc1nc(-c2c(F)cccc2Cl)nn1-c1ccc(COc2ncc(C(F)(F)F)cc2Cl)cc1Cl [T-30] | 99% | 100%
39 | – | CC1=CN(Cc2ccc(COc3ncc(C(F)(F)F)cc3Cl)cc2)NC(c2c(F)cccc2Cl)=N1 [T-171, 3-(2-chloro-6-fluorophenyl)-1-[4-(3-chloro-5-trifluoromethyl-2-pyridyloxymethyl)phenylmethyl]-5-methyl-1H-1,2,4-triazine] | 99% | –
40 | – | Cc1nc(-c2c(F)cccc2Cl)nn1-c1ccc(COc2ncc(C(F)(F)F)cc2Cl)cc1 [T-21, 3-(2-chloro-6-fluorophenyl)-1-[4-(3-chloro-5-trifluoromethylpyridin-2-yloxymethyl)phenyl]-5-methyl-1H-1,2,4-triazole] | 100% | 100%
41 | – | Fc1cccc(Cl)c1-c1nc(Cl)n(-c2ccc(COc3ncc(C(F)(F)F)cc3Cl)cc2)n1 [T-43] | 100% | 100%
42 | – | FC(F)(F)c1cnc(OCc2ccc(-n3cnc(-c4cc(Cl)nc(Cl)c4)n3)cc2)c(Cl)c1 [T-75] | 99% | –
43 | – | Nc1nc(-c2c(F)cccc2Cl)nn1-c1ccc(COc2ncc(C(F)(F)F)cc2Cl)cc1 [T-40] | 97% | 95%
44 | – | Fc1cccc(F)c1-c1nc(Cl)n(-c2ccc(COc3ncc(C(F)(F)F)cc3Cl)cc2)n1 [T-78] | 98% | 100%
45 | – | Fc1ccccc1-c1cn(-c2ccc(COc3ncc(C(F)(F)F)cc3Cl)cc2)c(Cl)n1 [I-77] | 95% | –
46 | – | Cc1nc(-c2ccccc2OC(F)(F)F)nn1-c1ccc(COc2ncc(C(F)(F)F)cc2Cl)cc1 [T-136] | 99% | –
47 | – | Cc1nc(-c2c(F)cccc2Cl)nn1-c1ccc(COc2ncc(C(F)(F)F)cc2Cl)cn1 [T-28] | 98% | 100%
48 | – | Cc1nc(-c2c(F)cccc2F)nn1-c1ccc(COc2ccc(C(F)(F)F)cn2)cc1 [T-66] | – | 95%
49 | – | Cc1nc(-c2c(F)cc(F)cc2F)nn1-c1ccc(COc2ncc(C(F)(F)F)cc2Cl)cc1 [T-135] | 96% | –
50 | – | O=Cc1nc(-c2c(F)cccc2Cl)nn1-c1ccc(COc2ncc(C(F)(F)F)cc2Cl)cc1 [T-107] | 100% | 100%
51 | – | Cc1nc(-c2c(F)cccc2Cl)nn1-c1ccc(COc2ncc(C(F)(F)F)cn2)cc1 [T-139] | 97% | –
52 | – | Fc1cccc(Cl)c1-c1nc(CCl)n(-c2ccc(COc3ncc(C(F)(F)F)cc3Cl)cc2)n1 [T-53] | 99% | –
